The values that follow come from ChEMBL document CHEMBL1201862, “PubChem BioAssay data set” (2004).

Among the test systems are OVCAR-5; NCI-H23; HOP-62; SK-MEL-5; TK-10; U-251; OVCAR-8; SF-268; NCI-H226; SN12C; MOLT-4; IGROV-1; RXF 393; LOX IMVI; ACHN; COLO 205.
What all share (test): growth of human tumour cells (NCI), 48 h

Molecules are shown by their SMILES.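 Interpolation was linear, between the two tested concentrations surrounding the appropriate level; five concentrations were tested over 48 hours in 96-well plates. The concentration for 50% growth inhibition is given as GI50.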 Activity calls are given as the source filed them. No stated cut-off is given here; in the data, active = GI50 up to about 1.1 µM and inactive = higher.

Turning to `COC1=CC(=O)NCCN1`, the GI50 in the assay on OVCAR-5, in the assay with NCI-H23, in the assay with HOP-62, in the assay on SK-MEL-5, with TK-10 and with U-251 was > 100 µM (inactive) in each case. Besides, the GI50 in the assay on OVCAR-8, with SF-268, in the assay on NCI-H226, with SN12C, in the assay with MOLT-4 and in the assay with IGROV-1 was > 100 µM (inactive) each time. Also, the GI50 with RXF 393 is > 100 µM (inactive); in the assay on LOX IMVI, 23.5 µM (inactive); in the assay on ACHN, > 100 µM (inactive); in the assay on COLO 205 it was 41.8 µM (inactive).
Regarding `Cc1ccc(NC(=O)c2cc3cc(/N=N/c4ccc(Br)cc4)ccc3oc2=O)cc1`, the GI50 in the assay with OVCAR-5 was > 100 µM (inactive); in the assay with NCI-H23 it was > 100 µM (inactive); with HOP-62, > 10 µM (inactive); in the assay with SK-MEL-5, > 100 µM (inactive); in the assay on TK-10 it was > 100 µM (inactive); in the assay with U-251 it was > 100 µM (inactive). The GI50 was 28.2 µM (inactive) in the assay with SF-268; > 100 µM (inactive) in the assay on NCI-H226; > 100 µM (inactive) with SN12C; 83 µM (inactive) in the assay with MOLT-4; > 100 µM (inactive) with RXF 393; > 100 µM (inactive) in the assay on LOX IMVI. The GI50 in the assay on ACHN was 53 µM (inactive); with COLO 205, > 100 µM (inactive).
With `Nc1nc(=O)n(C2CC(O)C(O)C(CO)O2)cc1F` (stereo not given), the GI50 in the assay on OVCAR-5, in the assay with NCI-H23, in the assay with HOP-62, in the assay with TK-10, in the assay on U-251 and in the assay with OVCAR-8 was > 100 µM (inactive) in each case. Further, the GI50 in the assay on SF-268, in the assay with NCI-H226, with SN12C, with MOLT-4, in the assay on IGROV-1 and in the assay on RXF 393 was > 100 µM (inactive) each time. Further, the GI50 with LOX IMVI, in the assay on ACHN and in the assay with COLO 205 was > 100 µM (inactive) throughout.
Take `N#Cc1ccccc1NC(=O)C(=O)C(C(=O)c1ccccc1-c1ccccc1)C1OC(=O)c2ccccc21` (stereo not given): the GI50 in the assay with OVCAR-5 is 17.8 µM (inactive); in the assay on NCI-H23, 11.8 µM (inactive); in the assay with HOP-62, 11.9 µM (inactive); in the assay with SK-MEL-5, > 100 µM (inactive); in the assay on TK-10 it was > 10 µM (inactive); with U-251, 11.7 µM (inactive). Also, the GI50 is 20.3 µM (inactive) in the assay on OVCAR-8; 14.3 µM (inactive) with SF-268; 2.58 µM (inactive) in the assay on NCI-H226; 13.9 µM (inactive) with MOLT-4; 23.5 µM (inactive) in the assay on IGROV-1; 11.6 µM (inactive) in the assay with RXF 393. Also, the values for the GI50 with LOX IMVI, with ACHN and in the assay with COLO 205 were 15 µM (inactive), 53.6 µM (inactive) and 21.1 µM (inactive), respectively.
Turning to `N#Cc1c(C(N)=O)ncn1Cc1ccccc1`, the GI50 in the assay on OVCAR-5, in the assay with NCI-H23, with HOP-62, in the assay with SK-MEL-5, in the assay on TK-10 and with U-251 was > 100 µM (inactive) each time. Also, the GI50 in the assay on OVCAR-8, with SF-268, in the assay with NCI-H226, in the assay on SN12C, in the assay on MOLT-4 and in the assay on IGROV-1 was > 100 µM (inactive) in each case. The GI50 with RXF 393, in the assay with LOX IMVI, with ACHN and in the assay with COLO 205 was > 100 µM (inactive) throughout.
Take `Cc1ccc(NC(=O)/C(=N\Nc2ccc([N+](=O)[O-])cc2[N+](=O)[O-])C2C(=O)NC(=O)NC2=O)cc1`: the GI50 in the assay with OVCAR-5 is > 100 µM (inactive); in the assay on NCI-H23 it was > 100 µM (inactive); in the assay on HOP-62, 27.5 µM (inactive); with SK-MEL-5 it was 33.2 µM (inactive); with TK-10 it was > 100 µM (inactive); in the assay on U-251 it was 38.6 µM (inactive). In addition, the GI50 in the assay on OVCAR-8 is 55.7 µM (inactive); in the assay on SF-268, 32 µM (inactive); with NCI-H226 it was > 100 µM (inactive); in the assay with SN12C, > 100 µM (inactive); in the assay on IGROV-1, 43.2 µM (inactive); in the assay with RXF 393, 48.9 µM (inactive). For the same compound, the GI50 is > 100 µM (inactive) in the assay with LOX IMVI, 23.3 µM (inactive) in the assay with ACHN and > 100 µM (inactive) with COLO 205.
Take `CCOC(=O)CCC(NC(=O)c1ccc(/N=C/c2nc3ccccc3nc2-c2ccccc2)cc1)C(=O)OCC` (stereo not given): the GI50 in the assay on OVCAR-5, in the assay on NCI-H23, in the assay with HOP-62, in the assay with SK-MEL-5, in the assay with TK-10 and in the assay with U-251 was > 100 µM (inactive) in each case. Moreover, the GI50 in the assay on OVCAR-8 was 13.9 µM (inactive); in the assay on SF-268, > 100 µM (inactive); with NCI-H226, > 100 µM (inactive); with SN12C, 79.1 µM (inactive); with MOLT-4 it was > 100 µM (inactive); with IGROV-1 it was > 100 µM (inactive). The GI50 with RXF 393 is 64.9 µM (inactive); with LOX IMVI, > 100 µM (inactive); in the assay with ACHN, > 100 µM (inactive); with COLO 205, > 100 µM (inactive).
Consider `Cc1c(C)c2ccc3oc4ccccc4c3c2oc1=O`, for which the GI50 in the assay with OVCAR-5, with NCI-H23, with HOP-62, with SK-MEL-5, in the assay on TK-10 and with U-251 was > 100 µM (inactive) each time. Also, the GI50 in the assay on OVCAR-8, with SF-268, in the assay on NCI-H226, with SN12C, in the assay with MOLT-4 and in the assay with IGROV-1 was > 100 µM (inactive) throughout. In addition, the GI50 in the assay with RXF 393, in the assay with LOX IMVI, in the assay on ACHN and in the assay with COLO 205 was > 100 µM (inactive) in each case.
For `COC(=O)c1ncc2c(=O)[nH]c3ccccc3c2c1C(=O)OC`, the GI50 with OVCAR-5, with NCI-H23, in the assay with HOP-62, in the assay on SK-MEL-5, in the assay on TK-10 and in the assay with OVCAR-8 was > 100 µM (inactive) throughout. Also, the GI50 in the assay with SF-268, with NCI-H226, with SN12C, in the assay on MOLT-4, with IGROV-1 and in the assay on RXF 393 was > 100 µM (inactive) each time. The GI50 with LOX IMVI and with ACHN was > 100 µM (inactive) each time.
With `C[n+]1c2ccccc2c(/C=N\NS(=O)(=O)c2ccc(Cl)cc2)c2ccccc21`, the GI50 is 97.7 µM (inactive) with OVCAR-5; > 100 µM (inactive) with NCI-H23; > 100 µM (inactive) in the assay on HOP-62; 42 µM (inactive) with SK-MEL-5; 74 µM (inactive) with TK-10; 45.8 µM (inactive) in the assay with U-251. In addition, the GI50 was 40.3 µM (inactive) with OVCAR-8; 69.2 µM (inactive) with SF-268; 68.2 µM (inactive) in the assay on NCI-H226; 56.8 µM (inactive) in the assay with SN12C; 32.9 µM (inactive) in the assay on MOLT-4; 43 µM (inactive) with IGROV-1. The results for the GI50 with RXF 393, with LOX IMVI and in the assay with ACHN were 57.3 µM (inactive), 16.8 µM (inactive) and 68.2 µM (inactive), respectively.
In the case of `CC(=O)Nc1ccc(-c2nnc(SCC(=O)Nc3cccc(C)c3)o2)cc1`, the GI50 with OVCAR-5 was 13.4 µM (inactive); with NCI-H23 it was 7.55 µM (inactive); in the assay with HOP-62, 28.7 µM (inactive); in the assay on SK-MEL-5, 11.1 µM (inactive); in the assay on TK-10, 15.8 µM (inactive); with U-251, 13.5 µM (inactive). The GI50 in the assay on OVCAR-8 was 16.3 µM (inactive); in the assay on SF-268 it was 24.5 µM (inactive); with NCI-H226 it was 14.4 µM (inactive); in the assay with SN12C, 15.2 µM (inactive); in the assay with MOLT-4, 4.84 µM (inactive); in the assay on IGROV-1, 11.7 µM (inactive). Besides, the GI50 with RXF 393 is 12.8 µM (inactive); in the assay with LOX IMVI it was 3.43 µM (inactive); with ACHN it was 10.7 µM (inactive); with COLO 205 it was 14.8 µM (inactive).
In the case of `COc1ccc2cc3c4cc(OC)c(OC)cc4ccn3c2c1`, the GI50 with OVCAR-5, in the assay on NCI-H23, in the assay on HOP-62, in the assay on SK-MEL-5, in the assay with TK-10 and in the assay with U-251 was > 100 µM (inactive) in each case. Also, the GI50 with OVCAR-8, in the assay with SF-268, with NCI-H226, with SN12C, with MOLT-4 and in the assay on IGROV-1 was > 100 µM (inactive) each time. Besides, the GI50 with RXF 393, in the assay on LOX IMVI, with ACHN and with COLO 205 was > 100 µM (inactive) each time.
`CCC(=O)OC1CCn2c1nc1c2C(=O)C(C)=C(NC(C)=O)C1=O` (stereo not given): the GI50 with OVCAR-5 is 1.92 µM (inactive); with NCI-H23 it was 1.76 µM (inactive); with HOP-62, 11.7 µM (inactive); with SK-MEL-5 it was 1.83 µM (inactive); with TK-10 it was 5.12 µM (inactive); in the assay with U-251, 2.08 µM (inactive). In addition, the GI50 in the assay on OVCAR-8 was 0.641 µM (active); in the assay on SF-268, 1.74 µM (inactive); in the assay with NCI-H226 it was 1.69 µM (inactive); with SN12C it was 1.79 µM (inactive); in the assay with MOLT-4, 1.41 µM (inactive); in the assay on IGROV-1, 2.19 µM (inactive). Further, the GI50 was 1.73 µM (inactive) in the assay on RXF 393, 1.37 µM (inactive) in the assay with LOX IMVI, 3.59 µM (inactive) in the assay with ACHN and 3.52 µM (inactive) in the assay on COLO 205.
